The supplement of paper PMC10307832

Experiments:
Assay in all cases: relative viability (nuclei count vs DMSO), 5 days (fraction); higher = more cells survive
[1] = compound: Cn1nnc2c(C(N)=O)ncn2c1=O [Temozolomide] + C[C@]1(O)C[C@@H](c2nc(-c3ccc4ccc(-c5ccccc5)nc4c3)c3c(N)nccn32)C1 [Linsitinib] (partner 1 µM)
Summary of the method: (§1)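 Dosing by pin tool came one day after lung cancer cell lines were seeded in 1536-well plates, using either one drug or a fixed anchor-drug dose plus five library-drug doses (not always all listed) in √10 steps. After 5 days, nuclei were counted on 4× images. Relative viability is treated-well nuclei count divided by vehicle-well nuclei count, and values are medians of duplicate plates.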

AZD5582 + Tozasertib = compound: C[C@@H](C(=O)N[C@@H](C1CCCCC1)C(=O)N2CCC[C@H]2C(=O)N[C@@H]3[C@@H](CC4=CC=CC=C34)OCC#CC#CCO[C@@H]5CC6=CC=CC=C6[C@@H]5NC(=O)[C@@H]7CCCN7C(=O)[C@H](C8CCCCC8)NC(=O)[C@H](C)NC)NC [AZD5582] + Cc1cc(Nc2cc(N3CCN(C)CC3)nc(Sc3ccc(NC(=O)C4CC4)cc3)n2)n[nH]1 [Tozasertib] (partner 0.1 µM)
Summary of the method: as §1

Temozolomide + Foretinib = compound: Cn1nnc2c(C(N)=O)ncn2c1=O [Temozolomide] + COc1cc2c(Oc3ccc(NC(=O)C4(C(=O)Nc5ccc(F)cc5)CC4)cc3F)ccnc2cc1OCCCN1CCOCC1 [Foretinib] (partner 0.25 µM)
Summary of the method: as §1

[2] = compound: Cn1nnc2c(C(N)=O)ncn2c1=O [Temozolomide] + CC(C)C[C@H](NC(=O)[C@H](Cc1ccccc1)NC(=O)c1cnccn1)B(O)O [Bortezomib] (partner 0.002 µM)
Summary of the method: as §1

| Cell Line | relative viability ([1]; first compound 0.2 µM) | relative viability ([1]; first compound 0.6325 µM) | relative viability ([1]; first compound 2 µM) | relative viability ([1]; first compound 6.325 µM) | relative viability ([1]; first compound 20 µM) | relative viability (AZD5582 + Tozasertib; first compound 0.001581 µM) | relative viability (AZD5582 + Tozasertib; first compound 0.005 µM) | relative viability (AZD5582 + Tozasertib; first compound 0.01581 µM) | relative viability (AZD5582 + Tozasertib; first compound 0.05 µM) | relative viability (Temozolomide + Foretinib; first compound 0.2 µM) | relative viability (Temozolomide + Foretinib; first compound 0.6325 µM) | relative viability (Temozolomide + Foretinib; first compound 2 µM) | relative viability (Temozolomide + Foretinib; first compound 6.325 µM) | relative viability (Temozolomide + Foretinib; first compound 20 µM) | relative viability ([2]; first compound 0.2 µM) | relative viability ([2]; first compound 0.6325 µM) | relative viability ([2]; first compound 2 µM) | relative viability ([2]; first compound 6.325 µM) | relative viability ([2]; first compound 20 µM) |
| --- | --- | --- | --- | --- | --- | --- | --- | --- | --- | --- | --- | --- | --- | --- | --- | --- | --- | --- | --- |
| NCI-H358 | 0.576 | 0.728 | 0.854 | 0.797 | 0.617 | 0.126 | 0.109 | 0.102 | 0.101 | 0.477 | 0.707 | 0.614 | 0.657 | 0.541 | – | – | – | – | – |
| HCC-827 | 0.998 | 0.959 | 0.954 | 0.968 | 0.158 | 0.398 | 0.489 | 0.436 | 0.396 | 1.14 | 1.01 | 0.994 | 0.894 | 0.153 | 1.2 | 1.1 | 1.02 | 1.05 | 0.32 |
| NCI-H1355 | 0.713 | 0.859 | 0.796 | 0.883 | 0.794 | 0.488 | 0.558 | 0.52 | 0.6 | 0.947 | 0.938 | 1.1 | 1 | 0.908 | 1.34 | 1.2 | 1.2 | 1.09 | 1.14 |
| NCI-H1793 | – | 0.884 | 1.15 | 0.846 | 0.839 | 0.241 | 0.486 | 0.303 | 0.454 | – | 0.583 | 0.935 | 0.432 | 0.615 | – | – | – | – | – |
| CAL-12T | 0.627 | 0.799 | 0.841 | 0.778 | 0.698 | 0.219 | 0.226 | 0.282 | 0.228 | 1.13 | 1.09 | 1.15 | 1.05 | 1.13 | – | 0.964 | 0.945 | 1.04 | 0.967 |
| NCI-H1993 | 0.725 | 0.727 | 0.698 | 0.744 | 0.708 | 0.599 | 0.681 | 0.547 | 0.567 | 0.81 | 0.722 | 0.807 | 0.72 | 0.672 | 0.944 | 1.19 | 1.14 | 1.07 | 0.736 |
| EKVX | 0.442 | 1.05 | 1.04 | 1.06 | 0.707 | 0.309 | 0.41 | 0.388 | 0.371 | 0.485 | 0.799 | 0.748 | 0.722 | 0.356 | 0.991 | 1.1 | 1.06 | 0.996 | 0.884 |
| NCI-H1755 | 1.01 | 0.98 | 1.04 | 1 | 0.801 | 0.523 | 0.652 | 0.599 | 0.587 | 0.979 | 0.93 | 0.908 | 0.873 | 0.722 | 0.961 | 0.952 | 1.01 | 0.897 | 0.84 |
| NCI-H2228 | 0.794 | 0.705 | 0.693 | 0.636 | 0.822 | 0.191 | 0.27 | 0.333 | 0.161 | 1.05 | 1.05 | 0.854 | 0.691 | 0.961 | 1.15 | 1.03 | 1.02 | 0.956 | 1.02 |
| NCI-H460 | 0.959 | 0.801 | 0.79 | 0.727 | 0.877 | 0.0814 | 0.495 | 0.509 | 0.521 | 0.988 | 0.967 | 1 | 0.96 | 1.11 | 1.29 | 1.11 | 1.02 | 1.24 | 1.14 |
| HCC-44 | 0.668 | 0.741 | 0.681 | 0.718 | 0.562 | 0.482 | 0.642 | 0.798 | 0.324 | – | – | – | – | – | 0.938 | 0.855 | 0.869 | 0.827 | 0.988 |
| BEN | 0.752 | 0.941 | 0.997 | 0.781 | 0.707 | 0.479 | 0.53 | 0.577 | 0.51 | 0.734 | 0.651 | 0.803 | 0.517 | 0.428 | 0.965 | 0.77 | 0.911 | 0.577 | 0.588 |
| H3255 | – | 0.963 | 0.927 | 0.959 | 0.145 | 0.553 | 0.609 | 0.676 | 0.509 | – | 0.845 | 1.03 | 0.507 | 0.201 | – | 0.755 | 0.849 | 0.824 | 0.213 |
| NCI-H1650 | – | – | – | – | – | 0.358 | 0.326 | 0.389 | 0.304 | 1.14 | 1.07 | 1.02 | 0.872 | 0.766 | 0.199 | 0.175 | 0.205 | 0.167 | 0.196 |
| A-427 | 1.1 | 1.15 | 1.15 | 0.948 | 0.604 | 0.201 | 0.198 | 0.221 | 0.167 | 0.992 | 0.981 | 1.03 | 0.66 | 0.486 | 1 | 0.934 | 0.993 | 0.87 | 0.616 |
